Laboratory results taken from paper PMC5218480 (PLoS ONE, 2017).

Tested on: MV-4-11 cells
Assay: Gene expression microarray analysis (Affymetrix PrimeView) and GSEA
Assay type: cell-based, human
Set-up: RFU PODN (11730768_x_at) / Fold change /veh PODN (11730768_x_at) / RFU LINC00158 (11744669_a_at) / Fold change /veh LINC00158 (11744669_a_at) / RFU DUSP10 (11751237_a_at) / Fold change /veh DUSP10 (11751237_a_at) / RFU ID3 (11757404_x_at) / Fold change /veh ID3 (11757404_x_at) / RFU PLEKHG5 (11737974_s_at) / Fold change /veh PLEKHG5 (11737974_s_at) / RFU LRRC4B (11730491_at) / Fold change /veh LRRC4B (11730491_at) / RFU GIMAP4 (11747438_a_at) / Fold change /veh GIMAP4 (11747438_a_at) / RFU KRT8 (11758183_x_at) / Fold change /veh KRT8 (11758183_x_at) / RFU CNN1 (11734310_a_at) / Fold change /veh CNN1 (11734310_a_at) / RFU VPS37D (11726825_at) / Fold change /veh VPS37D (11726825_at) / RFU C10orf10 (11716522_x_at) / Fold change /veh C10orf10 (11716522_x_at) / RFU KIR2DL2 /// KIR2DL4 /// KIR2DL5A /// KIR2DL5B /// KIR2DS1 /// KIR2DS2 /// KIR2DS3 /// KIR2DS4 /// KIR3DL3 /// KIR3DL3 /// KIR3DS1 (11738374_at) / Fold change /veh KIR2DL2 /// KIR2DL4 /// KIR2DL5A /// KIR2DL5B /// KIR2DS1 /// KIR2DS2 /// KIR2DS3 /// KIR2DS4 /// KIR3DL3 /// KIR3DL3 /// KIR3DS1 (11738374_at) / RFU C1QL1 (11718748_at) / Fold change /veh C1QL1 (11718748_at) / RFU TMPRSS4 (11747572_a_at) / Fold change /veh TMPRSS4 (11747572_a_at) / RFU HAMP (11756126_x_at) / Fold change /veh HAMP (11756126_x_at) / RFU RNFT2 (11725882_a_at) / Fold change /veh RNFT2 (11725882_a_at) / RFU NR4A2 (11747474_a_at) / Fold change /veh NR4A2 (11747474_a_at) / RFU ABCC12 (11746883_a_at) / Fold change /veh ABCC12 (11746883_a_at) / RFU TMEM136 (11760407_x_at) / Fold change /veh TMEM136 (11760407_x_at) / RFU CLDN22 /// WWC2 (11732394_at) / Fold change /veh CLDN22 /// WWC2 (11732394_at) / RFU HLA-DPB1 (11760878_x_at) / Fold change /veh HLA-DPB1 (11760878_x_at) / RFU SPINT1 (11716480_a_at) / Fold change /veh SPINT1 (11716480_a_at) / RFU GAP43 (11754022_s_at) / Fold change /veh GAP43 (11754022_s_at) / RFU A4GNT (11735810_at) / Fold change /veh A4GNT (11735810_at) / RFU PRB3 (11715151_x_at) / Fold change /veh PRB3 (11715151_x_at) / RFU TUBB4B (11761932_at) / Fold change /veh TUBB4B (11761932_at) / RFU CAPN14 (11732068_a_at) / Fold change /veh CAPN14 (11732068_a_at) / RFU TMCC2 (11721928_a_at) / Fold change /veh TMCC2 (11721928_a_at) / RFU IRGQ (11745062_a_at) / Fold change /veh IRGQ (11745062_a_at) / RFU FAM174B (11720279_a_at) / Fold change /veh FAM174B (11720279_a_at) / RFU TMPRSS4 (11748680_a_at) / Fold change /veh TMPRSS4 (11748680_a_at) / RFU FAM212B (11763350_a_at) / Fold change /veh FAM212B (11763350_a_at) / RFU PLEKHG5 (11743358_a_at) / Fold change /veh PLEKHG5 (11743358_a_at) / RFU ZSCAN30 (11745921_a_at) / Fold change /veh ZSCAN30 (11745921_a_at) / RFU CMKLR1 (11741424_a_at) / Fold change /veh CMKLR1 (11741424_a_at) / RFU LOC101060620 /// MAPK8IP1 (11723275_at) / Fold change /veh LOC101060620 /// MAPK8IP1 (11723275_at) / RFU SPTSSB (11747773_x_at) / Fold change /veh SPTSSB (11747773_x_at) / RFU PRSS12 (11739890_at) / Fold change /veh PRSS12 (11739890_at) / RFU BIN1 (11741810_x_at) / Fold change /veh BIN1 (11741810_x_at) / RFU WNT11 (11732464_a_at) / Fold change /veh WNT11 (11732464_a_at) / RFU C10orf10 (11716521_a_at) / Fold change /veh C10orf10 (11716521_a_at) / RFU C5orf56 (11738089_at) / Fold change /veh C5orf56 (11738089_at) / RFU CYB561 (11721691_x_at) / Fold change /veh CYB561 (11721691_x_at) / RFU ANKRD19P (11752326_a_at) / Fold change /veh ANKRD19P (11752326_a_at) / RFU OR2T12 /// OR2T33 /// OR2T8 (11738714_s_at) / Fold change /veh OR2T12 /// OR2T33 /// OR2T8 (11738714_s_at) / RFU VCAN (11748164_a_at) / Fold change /veh VCAN (11748164_a_at) / RFU JSRP1 (11732532_at) / Fold change /veh JSRP1 (11732532_at) / RFU KRTAP10-11 (11738290_x_at) / Fold change /veh KRTAP10-11 (11738290_x_at) / RFU MYO3A (11730013_a_at) / Fold change /veh MYO3A (11730013_a_at) / RFU EBF3 (11725865_a_at) / Fold change /veh EBF3 (11725865_a_at) / RFU CAMK2N1 (11719241_x_at) / Fold change /veh CAMK2N1 (11719241_x_at) / RFU C5orf56 (11738088_a_at) / Fold change /veh C5orf56 (11738088_a_at) / RFU OLFML3 (11715873_a_at) / Fold change /veh OLFML3 (11715873_a_at) / RFU LOC100653217 /// NTM (11731650_a_at) / Fold change /veh LOC100653217 /// NTM (11731650_a_at) / RFU MAPK11 (11762145_a_at) / Fold change /veh MAPK11 (11762145_a_at) / RFU FIZ1 (11724087_x_at) / Fold change /veh FIZ1 (11724087_x_at) / RFU OASL (11726364_x_at) / Fold change /veh OASL (11726364_x_at) / RFU SOX15 (11748057_x_at) / Fold change /veh SOX15 (11748057_x_at) / RFU CD79A (11719716_a_at) / Fold change /veh CD79A (11719716_a_at) / RFU HIST1H1D (11736915_at) / Fold change /veh HIST1H1D (11736915_at) / RFU CASKIN2 (11723855_a_at) / Fold change /veh CASKIN2 (11723855_a_at) / RFU LOC730098 (11760151_x_at) / Fold change /veh LOC730098 (11760151_x_at) / RFU OR4N2 (11742367_at) / Fold change /veh OR4N2 (11742367_at) / RFU PRRT2 (11749266_a_at) / Fold change /veh PRRT2 (11749266_a_at) / RFU SNX32 (11753110_a_at) / Fold change /veh SNX32 (11753110_a_at) / RFU CDHR5 (11726645_a_at) / Fold change /veh CDHR5 (11726645_a_at) / RFU RCAN1 (11760418_a_at) / Fold change /veh RCAN1 (11760418_a_at) / RFU FAM167A (11723789_a_at) / Fold change /veh FAM167A (11723789_a_at) / RFU FAM26E (11764081_at) / Fold change /veh FAM26E (11764081_at) / RFU ISYNA1 (11749810_s_at) / Fold change /veh ISYNA1 (11749810_s_at) / RFU ACY1 (11761880_at) / Fold change /veh ACY1 (11761880_at) / RFU 11764098_at / Fold change /veh 11764098_at / RFU SAMD14 (11745864_x_at) / Fold change /veh SAMD14 (11745864_x_at) / RFU NPB (11741838_a_at) / Fold change /veh NPB (11741838_a_at) / RFU TMPRSS6 (11731388_a_at) / Fold change /veh TMPRSS6 (11731388_a_at) / RFU KRTAP10-2 (11738614_at) / Fold change /veh KRTAP10-2 (11738614_at) / RFU ARHGAP8 /// PRR5-ARHGAP8 (11727945_x_at) / Fold change /veh ARHGAP8 /// PRR5-ARHGAP8 (11727945_x_at) / RFU KRTAP5-7 /// NADSYN1 (11734609_at) / Fold change /veh KRTAP5-7 /// NADSYN1 (11734609_at) / RFU RASL12 (11751679_a_at) / Fold change /veh RASL12 (11751679_a_at) / RFU CDKN2B (11736163_a_at) / Fold change /veh CDKN2B (11736163_a_at) / RFU PRF1 (11729649_at) / Fold change /veh PRF1 (11729649_at) / RFU, ZNF638 /// ZNF638-IT1 / Fold change vs veh, ZNF638 /// ZNF638-IT1 / RFU, PANK3 / Fold change vs veh, PANK3 / RFU, SH3YL1 / Fold change vs veh, SH3YL1 / RFU, ZEB2 / Fold change vs veh, ZEB2 / RFU, NRIP1 / Fold change vs veh, NRIP1 / RFU, PTTG1IP / Fold change vs veh, PTTG1IP / RFU, CAPN2 / Fold change vs veh, CAPN2 / RFU, MED14 / Fold change vs veh, MED14 / RFU, SNORA58 / Fold change vs veh, SNORA58 / RFU, C1orf63 / Fold change vs veh, C1orf63 / RFU, LRRFIP1 / Fold change vs veh, LRRFIP1 / RFU, NDUFAF7 / Fold change vs veh, NDUFAF7 / RFU, SLC12A2 / Fold change vs veh, SLC12A2 / RFU, IBTK / Fold change vs veh, IBTK / RFU, ESF1 / Fold change vs veh, ESF1 / Fold change vs veh, TMEM50B / RFU, TAOK1 / Fold change vs veh, TAOK1 / RFU, ACBD3 / Fold change vs veh, ACBD3 / RFU, TMA16 / Fold change vs veh, TMA16 / RFU, RWDD3 / Fold change vs veh, RWDD3 / RFU, BCAT1 / Fold change vs veh, BCAT1 / RFU, EDEM3 / Fold change vs veh, EDEM3 / RFU, TMEM33 / Fold change vs veh, TMEM33 / RFU, WDR75 / Fold change vs veh, WDR75 / RFU, AHCTF1 / Fold change vs veh, AHCTF1 / RFU, TFRC / Fold change vs veh, TFRC / RFU, ZDHHC17 / Fold change vs veh, ZDHHC17 / RFU, NOM1 / Fold change vs veh, NOM1 / RFU, ARL8B / Fold change vs veh, ARL8B / RFU, ZBTB11 / Fold change vs veh, ZBTB11 / RFU, TAMM41 / Fold change vs veh, TAMM41 / RFU, KIAA1704 /// LOC100996395 / Fold change vs veh, KIAA1704 /// LOC100996395 / RFU, ING1 / Fold change vs veh, ING1 / RFU, TRMT61B / Fold change vs veh, TRMT61B / RFU, FUBP3 / Fold change vs veh, FUBP3 / RFU, TP53 / Fold change vs veh, TP53 / RFU, TNKS2 / Fold change vs veh, TNKS2 / RFU, ZFP14 / Fold change vs veh, ZFP14 / RFU, ACTR2 / Fold change vs veh, ACTR2 / RFU, PPP3R1 / Fold change vs veh, PPP3R1 / RFU, PIK3R1 / Fold change vs veh, PIK3R1 / RFU, HNRNPA1 / Fold change vs veh, HNRNPA1 / RFU, RNF170 / Fold change vs veh, RNF170 / RFU, ZNF28 / Fold change vs veh, ZNF28 / RFU, RNGTT / Fold change vs veh, RNGTT / RFU, OGT / Fold change vs veh, OGT / RFU, BRD1 / Fold change vs veh, BRD1 / RFU, MARS / Fold change vs veh, MARS / RFU, ZNF655 / Fold change vs veh, ZNF655 / RFU, FAHD1 / Fold change vs veh, FAHD1 / RFU, BDP1 / Fold change vs veh, BDP1 / RFU, LRRCC1 / Fold change vs veh, LRRCC1 / RFU, ARID1A / Fold change vs veh, ARID1A / RFU, ZNF146 / Fold change vs veh, ZNF146 / RFU, ZNF330 / Fold change vs veh, ZNF330 / RFU, GPN3 / Fold change vs veh, GPN3 / RFU, C9orf123 / Fold change vs veh, C9orf123 / RFU, N4BP2L2 / Fold change vs veh, N4BP2L2 / RFU, ARFIP1 / Fold change vs veh, ARFIP1 / RFU, FAM179B / Fold change vs veh, FAM179B / RFU, BCL10 / Fold change vs veh, BCL10 / RFU, UHRF1BP1L / Fold change vs veh, UHRF1BP1L / RFU, BET1 / Fold change vs veh, BET1 / RFU, CNOT2 / Fold change vs veh, CNOT2 / RFU, ZNF268 / Fold change vs veh, ZNF268 / Fold change vs veh, ZNF507 / RFU, DGCR2 / Fold change vs veh, DGCR2 / RFU, WDSUB1 / Fold change vs veh, WDSUB1 / Fold change vs veh, HSP90B1 /// MIR3652 / RFU, ADSS / Fold change vs veh, ADSS / RFU, GK / Fold change vs veh, GK / RFU, ZNF148 / Fold change vs veh, ZNF148 / RFU, TAF9 / Fold change vs veh, TAF9 / RFU, SLC1A5 / Fold change vs veh, SLC1A5 / RFU, SLMO2 / Fold change vs veh, SLMO2 / RFU, ABCC4 / Fold change vs veh, ABCC4 / RFU, LOC101060439 /// RAP1B / Fold change vs veh, LOC101060439 /// RAP1B / RFU, RFX7 / Fold change vs veh, RFX7 / RFU, GTPBP10 / Fold change vs veh, GTPBP10 / RFU, CNEP1R1 / Fold change vs veh, CNEP1R1 / RFU, BIVM-ERCC5 /// ERCC5 / Fold change vs veh, BIVM-ERCC5 /// ERCC5 / RFU, ILF3 / Fold change vs veh, ILF3 / RFU 11762660_at / Fold change /veh 11762660_at / RFU VCAN (11757783_s_at) / Fold change /veh VCAN (11757783_s_at) / RFU DDX43 (11728927_at) / Fold change /veh DDX43 (11728927_at) / RFU KRT8 (11758188_x_at) / Fold change /veh KRT8 (11758188_x_at) / RFU NKD1 (11759106_at) / Fold change /veh NKD1 (11759106_at) / RFU SRD5A1 (11742802_a_at) / Fold change /veh SRD5A1 (11742802_a_at) / RFU TPSAB1 /// TPSB2 (11721975_s_at) / Fold change /veh TPSAB1 /// TPSB2 (11721975_s_at) / RFU GSTM3 (11746129_a_at) / Fold change /veh GSTM3 (11746129_a_at) / RFU IL23R (11737362_x_at) / Fold change /veh IL23R (11737362_x_at) / RFU TMEM51 (11727254_a_at) / Fold change /veh TMEM51 (11727254_a_at) / RFU PIWIL2 (11732686_x_at) / Fold change /veh PIWIL2 (11732686_x_at) / RFU ORM1 (11744905_x_at) / Fold change /veh ORM1 (11744905_x_at) / RFU CCDC152 (11743942_at) / Fold change /veh CCDC152 (11743942_at) / RFU ECM1 (11717891_a_at) / Fold change /veh ECM1 (11717891_a_at) / RFU IL23R (11748794_a_at) / Fold change /veh IL23R (11748794_a_at) / RFU TNFAIP8L3 (11732012_x_at) / Fold change /veh TNFAIP8L3 (11732012_x_at) / RFU MBOAT4 (11741988_at) / Fold change /veh MBOAT4 (11741988_at) / RFU 11764193_at / Fold change /veh 11764193_at / RFU TMEM53 (11763286_at) / Fold change /veh TMEM53 (11763286_at) / RFU MAGEB2 (11727129_at) / Fold change /veh MAGEB2 (11727129_at) / RFU TMEM200A (11744735_a_at) / Fold change /veh TMEM200A (11744735_a_at) / RFU CCDC152 (11751479_a_at) / Fold change /veh CCDC152 (11751479_a_at) / RFU FAM211A (11726209_a_at) / Fold change /veh FAM211A (11726209_a_at) / RFU RGS16 (11746705_a_at) / Fold change /veh RGS16 (11746705_a_at) / RFU VCAN (11755009_s_at) / Fold change /veh VCAN (11755009_s_at) / RFU RHOB (11743442_s_at) / Fold change /veh RHOB (11743442_s_at) / RFU RGS16 (11720943_a_at) / Fold change /veh RGS16 (11720943_a_at) / RFU RGS16 (11720944_at) / Fold change /veh RGS16 (11720944_at) / RFU, VPS4B / Fold change vs veh, VPS4B / RFU, CREB1 / Fold change vs veh, CREB1 / RFU, DNAJC13 / Fold change vs veh, DNAJC13 / RFU, GNAQ / Fold change vs veh, GNAQ / RFU, CDK5R1 / Fold change vs veh, CDK5R1 / RFU, ZRANB3 / Fold change vs veh, ZRANB3 / RFU, CUL4A / Fold change vs veh, CUL4A / RFU, CCNY / Fold change vs veh, CCNY / RFU, UFL1 / Fold change vs veh, UFL1 / RFU, COG3 / Fold change vs veh, COG3 / RFU, DIAPH2 / Fold change vs veh, DIAPH2 / RFU, SKA2 / Fold change vs veh, SKA2 / RFU, AFF3 / Fold change vs veh, AFF3 / RFU, LMF1 / Fold change vs veh, LMF1 / RFU, IPO11 / Fold change vs veh, IPO11 / RFU, DFFB / Fold change vs veh, DFFB / RFU, FOXP1 / Fold change vs veh, FOXP1 / RFU, CARD8 / Fold change vs veh, CARD8 / RFU, STRN3 / Fold change vs veh, STRN3 / RFU, ADK / Fold change vs veh, ADK / RFU, RASSF2 / Fold change vs veh, RASSF2 / RFU, WIPF1 / Fold change vs veh, WIPF1 / RFU, LARP1B / Fold change vs veh, LARP1B / RFU, RASA1 / Fold change vs veh, RASA1 / RFU, RB1 / Fold change vs veh, RB1 / RFU, PPFIA1 / Fold change vs veh, PPFIA1 / RFU, MAT2A / Fold change vs veh, MAT2A / RFU, CCT5 / Fold change vs veh, CCT5 / RFU, WDR92 / Fold change vs veh, WDR92 / RFU, CUX1 / Fold change vs veh, CUX1 / RFU, TTC7A / Fold change vs veh, TTC7A / RFU, TMEM135 / Fold change vs veh, TMEM135 / RFU, DEPTOR / Fold change vs veh, DEPTOR / RFU, CPM / Fold change vs veh, CPM / RFU, DNAJB6 / Fold change vs veh, DNAJB6 / RFU, CACNA2D3 / Fold change vs veh, CACNA2D3 / RFU, DTX4 / Fold change vs veh, DTX4 / RFU, TFCP2 / Fold change vs veh, TFCP2 / RFU, GMCL1 /// GMCL1P1 / Fold change vs veh, GMCL1 /// GMCL1P1 / RFU, AEBP2 / Fold change vs veh, AEBP2 / RFU, SNHG1 /// SNORD22 /// SNORD25 /// SNORD26 /// SNORD27 /// SNORD28 /// SNORD29 /// SNORD31 / Fold change vs veh, SNHG1 /// SNORD22 /// SNORD25 /// SNORD26 /// SNORD27 /// SNORD28 /// SNORD29 /// SNORD31 / Fold change (Aza/veh), C12orf56 (ProbeSet 11735607_a_at) / Fold change (ACY-1035/veh), C12orf56 (ProbeSet 11735607_a_at) / Fold change (Aza/veh), FGFR1OP (ProbeSet 11751329_s_at) / Fold change (ACY-1035/veh), FGFR1OP (ProbeSet 11751329_s_at) / Fold change (Aza/veh), VPS36 (ProbeSet 11739960_a_at) / Fold change (ACY-1035/veh), VPS36 (ProbeSet 11739960_a_at) / RFU SYPL1 (11715823_x_at) / Fold change /veh SYPL1 (11715823_x_at) / RFU IGFBP7 (11715501_s_at) / Fold change /veh IGFBP7 (11715501_s_at) / RFU REEP3 (11722064_at) / Fold change /veh REEP3 (11722064_at) / RFU IGLL1 (11728026_x_at) / Fold change /veh IGLL1 (11728026_x_at): dose or concentration left out as unconfirmed
Details: MV-4-11 cells, 48 hours

Q: `Nc1ncn([C@@H]2O[C@H](CO)[C@@H](O)[C@H]2O)c(=O)n1` [azacitidine] was tested. Which “Fold change /veh C10orf10 (11716521_a_at)” value did it give?
A: 1.13
